Assay results published in article PMC6435255 (Nature chemistry, 2018).

Tests used:
hENT1 [1] = biological target: T1, hENT1 (Homo sapiens, UniProt Q99808); assay type: cell-based; details: PK15-ENT1 cells, combined with rapadocin
T1 sequence (Q99808 1-456): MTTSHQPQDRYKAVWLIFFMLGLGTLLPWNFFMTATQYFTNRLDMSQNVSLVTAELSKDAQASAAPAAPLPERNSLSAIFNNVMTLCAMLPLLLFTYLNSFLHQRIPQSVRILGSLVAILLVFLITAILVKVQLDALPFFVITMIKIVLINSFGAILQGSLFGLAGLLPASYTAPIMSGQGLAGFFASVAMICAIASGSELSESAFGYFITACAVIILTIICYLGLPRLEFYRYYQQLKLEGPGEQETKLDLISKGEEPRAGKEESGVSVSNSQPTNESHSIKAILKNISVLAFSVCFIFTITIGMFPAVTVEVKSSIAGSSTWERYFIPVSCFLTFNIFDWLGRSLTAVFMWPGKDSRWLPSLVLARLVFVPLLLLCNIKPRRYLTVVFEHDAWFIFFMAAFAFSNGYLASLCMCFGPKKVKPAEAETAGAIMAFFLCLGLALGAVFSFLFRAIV

hENT1 [2] = biological target: T1, hENT1; assay: Affinity pulldown with biotinylated rapadocin, red blood cell membrane extract; assay type: binding; details: competitor
hENT1 [3] = biological target: hENT1 (Homo sapiens, UniProt P62942+Q99808); assay: GST-FKBP12 affinity pulldown, red blood cell membrane extract; assay type: binding; details: competitor
[4] = tested on: Id1-Luc luciferase reporter; assay: BMP reporter gene assay; assay type: cell-based, human; details: Jurkat T cells, 10 µM, 18 h
HUVEC = assay: Adenosine; assay type: cell-based, human

Chain of hENT1 (Homo sapiens, UniProt P62942+Q99808) (P62942 whole entry, one chain of several): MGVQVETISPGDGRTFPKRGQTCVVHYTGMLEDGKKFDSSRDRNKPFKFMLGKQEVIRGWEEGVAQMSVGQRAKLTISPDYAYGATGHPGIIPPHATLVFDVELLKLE

Structure (SMILES) | antagonism of rapadocin inhibition of hENT1-mediated thymidine uptake (hENT1 [1]) | competition of hENT1 binding of the biotin-rapadocin probe (hENT1 [2]) | competition of GST-FKBP12-rapadocin association with hENT1 (hENT1 [3]) | activation of the Id1-Luc reporter gene [4] | IC50, nucleoside uptake (HUVEC)
COc1ccc(-c2ccc3c(N4CCOC[C@@H]4C)nc(N4CCOC[C@@H]4C)nc3n2)cc1CO [AZD8055] | did not antagonize |  |  |  | 
C=CC[C@@H]1/C=C(\C)C[C@H](C)C[C@H](OC)[C@H]2O[C@@](O)(C(=O)C(=O)N3CCCC[C@H]3C(=O)O[C@H](/C(C)=C/[C@@H]3CC[C@@H](O)[C@H](OC)C3)[C@H](C)[C@@H](O)CC1=O)[C@H](C)C[C@@H]2OC [FK506] | antagonize | not appreciably | sensitive to competition | activated the Id1-Luc reporter gene | low micromolar range
CO[C@H]1C[C@@H]2CC[C@@H](C)[C@@](O)(O2)C(=O)C(=O)N2CCCC[C@H]2C(=O)O[C@H]([C@H](C)C[C@@H]2CC[C@@H](O)[C@H](OC)C2)CC(=O)[C@H](C)/C=C(\C)[C@@H](O)[C@@H](OC)C(=O)[C@H](C)C[C@H](C)/C=C/C=C/C=C/1C [rapamycin] | antagonize | not appreciably | sensitive to competition | activated the Id1-Luc reporter gene | low micromolar range
